Measurements as given in patent US20250387771A1, “COMPOSITION COMPRISING BIODEGRADABLE MICROCAPSULES” (priority 2022, published 2025).

Test system: biological contamination of microcapsule compositions
Experiment: Preservation of microcapsule compositions against biological contamination over time by conventional preservation agents
Settings: agent used alone; one month or more

Molecule | Prevention of biological contamination of microcapsule compositions over time
O=C(O)c1ccccc1 [benzoic acid] | unable, when used alone, to prevent the biological contamination of microcapsule compositions over time
p-hydroxybenzoic esters | unable, when used alone, to prevent the biological contamination of microcapsule compositions over time
